According to publication PMC3056768, “Conjugation to the Cell-Penetrating Peptide TAT Potentiates the Photodynamic Effect of Carboxytetramethylrhodamine” (PLoS ONE, 2011):
“Also recorded” adds a separate entry of the source.

Tests used:
[1] = system: HeLa cells; assay: Endocytic uptake (fluorescence of endocytic organelles); type: cell-based, human; settings: 1 h at 37°C, washed, fluorescence imaging (TMR-TAT 3 µM; TMR-K9 higher concentration)
Procedure: (§1) HeLa (human cervical adenocarcinoma), COS-7 (SV40 transformed African green monkey kidney fibroblast-like cell line) were obtained from ATCC. COLO 316 (human ovarian carcinoma) were obtained from Robert Burghardt (Department of Veterinary Integrative Biosciences, Texas A&M University). Cells were cultured in DMEM supplemented with 10% fetal bovine serum (FBS) and maintained at 37°C in a humidified environment with 5% CO2. Cells were plated in 8-well dishes so that the cells were 70% confluent after 24 h, washed 3 times with L-15 media, incubated with 3 to 10 µM peptides at 37°C for 1 h, washed 3 times with L-15, and imaged. Alternatively, cells were incubated in L-15 at 4°C to inhibit the endocytic uptake of peptides. In this case, cells were imaged with the peptide still present in solution and the low temperature was maintained for the entire duration of imaging. For photosensitization, cells were exposed to light (λex = 560±20 nm) for the indicated time points. Plasma membrane disruption was detected by addition of the cell-impermeable DNA stain SYTOX Blue (5 µM) during or after photosensitization.
Supplementary file pone.0017732.s003.tif: Figure S3 Comparison of the fluorescence intensity of endosomes containing TMR-TAT (incubation at 3 µM) or TMR-K9 (incubation at 10 µM) in the images presented in Figure 1. Imaging was performed in both cases under identical conditions. The fluorescence intensities of all endocytic organelles was measured the Slidebook software. […] (TIF) Click here for additional data file.

[2] = system: red blood cells (RBCs)
Procedure: Whole blood was purchased from Gulf Coast Regional Blood Center (Houston, TX). Erythrocytes were centrifuged for 5 min at 1500 g and the erythrocyte pellet was resuspended with PBS. This was repeated three times to remove plasma and buffy coat. The erythrocytes (50% volume in PBS) were diluted in PBS to a final concentration of 0.25%. Indicated concentration of peptide was added to the medium and the samples were added to the wells of an 8-well chamber glass slide (Nunc). Cells were typically allowed to settle to the bottom of the dish for 5 minutes prior to imaging so as to obtain a layer of cells in the focal plane.
Cells were placed on an inverted epifluorescence microscope (Model IX81, Olympus, Center Valley, PA) equipped with a heating stage maintained at 37°C. The microscope is configured with a spinning disk unit to perform both confocal and wide-field fluorescence microscopy. Images were collected using a Rolera-MGI Plus back-illuminated EMCCD camera (Qimaging, Surrey, BC, Canada). Images were acquired using bright field imaging and two standard fluorescence filter sets: Texas Red (Ex = 560±20 nm/Em = 630±35 nm), and CFP (Ex = 436±10 nm/Em = 480±20 nm). The excitation light was from a 100 W halogen lamp (Olympus USH 1030C) passed through the filter cubes and 40 or 100× objective lenses. Neutral density filters (ND 1, 2, 3, or 4 on the instrument, corresponding to 100, 25, 12.5, or 5% transmittance) and different exposure times were used to modulate the amount of light samples were exposed to. The bright field and fluorescence intensities of cells and ghosts were measured using the SlideBook 4.2 software (Olympus, Center Valley, PA). To determine the percentage of cells stained by SYTOX® Blue, cells were imaged with a 20× objective by phase contrast. Ten to twenty images were acquired for each experiment. The total number of cells in a given image was determined from the phase contrast image while the number of dead cells was determined by identifying cells containing a blue fluorescent nucleus stained by SYTOX® Blue. Cell viability was determined by establishing a ratio of dead cells/total number of cells for each sample (at least 1000 cells were counted in each experiments and each experiments were repeated 3 times).
TMR and TMR containing peptides were used at 2 µM. All experiments were performed by irradiating the samples at 560 nm for 400 msec (∼8 J/cm^2). The data in the histogram represents the average of 4 experiments and the error bars correspond to the standard deviation.

[3] = system: HeLa cells; assay: Photocytotoxicity of endocytosed peptide after light irradiation (SYTOX Blue staining, membrane blebbing); type: cell-based
[4] = system: COLO 316 cells; assay: Photocytotoxicity of endocytosed peptide; type: cell-based, human; settings: COLO 316, 3 µM for 1 h, washed, 560 nm
Procedure: as §1
Figure 2 The photolytic and photocytotoxic effects of TMR-TAT occur rapidly and in all irradiated cells. […] The cells were washed with fresh media and endocytosis of TMR-TAT was confirmed by fluorescence microscopy. […]

[5] = system: HeLa cells; assay: Photo-induced endosomal release (fluorescence imaging); type: cell-based, human
Procedure: as §1
Ten to twenty images were acquired for each experiment.
The effect of light irradiation on cells that have endocytosed TMR-TAT was first investigated. HeLa cells were incubated in the presence of TMR-TAT (3 µM) for 1 hour at 37°C. After washing the cells, the sample was placed on a microscope and the cellular distribution of the peptide was assessed by fluorescence imaging. […] Within seconds, the content of many endosomes was released into the cell and the peptides were distributed throughout the cell. The peptide also accumulated at the nucleoli, a known effect of TAT [7]. […] The viability of non-irradiated cells was, in contrast, not affected by TMR-TAT (Fig. 2B); we found the cytotoxicity of the peptide to be negligible in the absence of light at concentrations up to 25 µM (supporting information Fig. S1).

SMILES: CN(C)c1ccc2c(c1)Oc1cc(N(C)C)ccc1C21OC(=O)c2cc(C(=O)NCC(=O)N[C@@H](CCCNC(=N)N)C(=O)N[C@@H](CCCCN)C(=O)N[C@@H](CCCCN)C(=O)N[C@@H](CCCNC(=N)N)C(=O)N[C@@H](CCCNC(=N)N)C(=O)N[C@@H](CCC(N)=O)C(=O)N[C@@H](CCCNC(=N)N)C(=O)N[C@@H](CCCNC(=N)N)C(=O)N[C@@H](CCCNC(=N)N)C(=O)NCC(N)=O)ccc21 [TMR-TAT]
- endocytic uptake by cells [1]: punctate intracellular distribution
- lysis of RBCs when light exposure is increased ([2]; 3 µM, 560 nm): more than 90%
- lysis of RBCs in the absence of irradiation ([2]; RBCs 0.25% in PBS, 1 to 5 µM, no 560 nm light): No lysis
- photohemolysis (lytic effect on RBCs upon light exposure) ([2]; RBCs 0.25% in PBS, irradiation at 560 nm): started lysing immediately upon excitation with light
- photohemolysis after removal of oxygen ([2]; incubation media degassed with nitrogen): greatly reduced
- cell destruction after irradiation at 430 nm ([3]; HeLa incubated with TMR-TAT, 430 nm (not absorbed by TMR), radiant exposure approx. 40 J/cm^2): not destroyed
- cell death on exposure to light of wavelengths not absorbed by TMR ([3]; HeLa, e.g. 436 or 470 nm): no cell death
- photo-induced activities (morphological changes, SYTOX Blue staining) [4]: only observable in the irradiated area; also recorded: could be reproduced
- endosomal release on exposure to light of wavelengths not absorbed by TMR ([5]; e.g. 436 or 470 nm): No endosomal release
- photo-induced endosomal release (photoendosomolytic activity) at 560 nm ([5]; incubation 1 h 37°C (3 µM; TMR-K9 10 µM), washed, irradiated at 560±20 nm): release of the fluorescent peptides from endosomes into the cytosol; also recorded: escape of TMR-TAT from endocytic organelles into the cytosol
